The text below walks through data of patent US6544985B2, “Dihydro-benzo [b][1,4]diazepin-2-one derivatives” (Hoffman-La Roche Inc., priority 2001, dated 2003).

The structures appear in SMILES notation.

In the case of `N#Cc1cc(C2=Nc3cc(N4CCC4)c(Cl)cc3NC(=O)C2)ccn1` [Example 59, 4-(8-Azetidin-1-yl-7-chloro-4-oxo-4,5-dihydro-3H-benzo[b][1,4]diazepin-2-yl)-pyridine-2-carbonitrile], the melting point worked out at 276 °C.

In turn, `Cc1cc(-c2cccc(C3=Nc4cc(N(C)C(C)C)c(C#N)cc4NC(=O)C3)c2)on1` [Example 108, 8-(Isopropyl-methyl-amino)-2-[3-(3-methyl-isoxazol-5-yl)-phenyl]-4-oxo-4,5-dihydro-3H-benzo[b][1,4]diazepine-7-carbonitrile] came in with a melting point of 197 °C.

As for `Cc1cc(-c2cccc(C3=Nc4cc(N(C)C)c(Cl)cc4NC(=O)C3)c2)on1` [Example 6, 8-Chloro-7-dimethylamino-4-[3-(3-methyl-isoxazol-5-yl)-phenyl]-1,3-dihydro-benzo[b][1,4]diazepin-2-one], the melting point was in the range of 212 to 215 °C.

In turn, `O=C1CC(c2cccc(-n3nncc3CO)c2)=Nc2cc(N3CCCC3)c(F)cc2N1` [Example 58, 8-Fluoro-4-[3-(5-hydroxymethyl-[1,2,3]triazol-1-yl)-phenyl]-7-pyrrolidin-1-yl-1,3-dihydro-benzo[b][1,4]diazepin-2-one] showed a melting point of 184 to 185 °C.

In turn, `CCCN(C)c1cc2c(cc1C)NC(=O)CC(c1cccc(-c3cc(C)no3)c1)=N2` [Example 97, 8-Methyl-4-[3-(3-methyl-isoxazol-5-yl)-phenyl]-7-(methyl-propyl-amino)-1,3-dihydro-benzo[b][1,4]diazepin-2-one] came in with a melting point of 194 °C.

The compound `CN(C)c1cc2c(cc1C(F)(F)F)NC(=O)CC(c1cccc(-c3cocn3)c1)=N2` [Example 208, 7-Dimethylamino-4-(3-oxazol-4-yl-phenyl)-8-trifluoromethyl-1,3-dihydro-benzo[b][1,4]diazepin-2-one] registered a melting point of 218 to 219 °C.

`CC(C)CN(C)c1cc2c(cc1Cl)NC(=O)CC(c1cccc(-n3nncc3CN3CCCC3)c1)=N2` [Example 126, 8-Chloro-7-(isobutyl-methyl-amino)-4-[3-(5-pyrrolidin-1-ylmethyl-[1,2,3]triazol-1-yl)-phenyl]-1,3-dihydro-benzo[b][1,4]diazepin-2-one] gave a melting point of 190 °C.

On to `CC(C)N(C)c1cc2c(cc1C(F)(F)F)NC(=O)CC(c1cccc(-n3nncc3CN(C)C)c1)=N2` [Example 150, 4-[3-(5-Dimethylaminomethyl-[1,2,3]triazol-1-yl)-phenyl]-7-(isopropyl-methyl-amino)-8-trifluoromethyl-1,3-dihydro-benzo[b][1,4]diazepin-2-one], for which the melting point is 197 °C.

In turn, `CC(C)N(C)c1cc2c(cc1Cl)NC(=O)CC(c1cccc(-n3nncc3CN3CCCC3)c1)=N2` [Example 125, 8-Chloro-7-(isopropyl-methyl-amino)-4-[3-(5-pyrrolidin-1-ylmethyl-[1,2,3]triazol-1-yl)-phenyl]-1,3-dihydro-benzo[b][1,4]diazepin-2-one] had a melting point of 172 °C.

On to `CN(C)c1cc2c(cc1Cl)NC(=O)CC(c1cccc(-n3cc(CO)cn3)c1)=N2` [Example 67, 8-Chloro-7-dimethylamino-4-[3-(4-hydroxymethyl-pyrazol-1-yl)-phenyl]-1,3-dihydro-benzo[b][1,4]diazepin-2-one], for which the melting point was determined as 211 °C.

`CCCN(C)c1cc2c(cc1Cl)NC(=O)CC(c1cccc(-n3ncnc3CN3CCCC3)c1)=N2` [Example 164, 8-Chloro-7-(methyl-propyl-amino)-4-[3-(5-pyrrolidin-1-ylmethyl-[1,2,4]triazol-1-yl)-phenyl]-1,3-dihydro-benzo[b][1,4]diazepin-2-one] returned a melting point of 183 °C.

In turn, `CCCc1sc(CO)nc1-c1cccc(C2=Nc3cc(N(C)C)c(C(F)(F)F)cc3NC(=O)C2)c1` [Example 217, 7-Dimethylamino-4-[3-(2-hydroxymethyl-5-propyl-thiazol-4-yl)-phenyl]-8-trifluoromethyl-1,3-dihydro-benzo[b][1,4]diazepin-2-one] returned a melting point of 112 to 114 °C.

For `CN(C)c1cc2c(cc1Cl)NC(=O)CC(c1cccc(-c3csc(N)n3)c1)=N2` [Example 194, 4-[3-(2-Amino-thiazol-4-yl)-phenyl]-8-chloro-7-dimethylamino-1,3-dihydro-benzo[b][1,4]diazepin-2-one], the melting point is 247 to 248 °C.

As to `CC(C)NCc1cnnn1-c1cccc(C2=Nc3cc(N(C)C(C)C)c(C(F)(F)F)cc3NC(=O)C2)c1` [Example 155, 4-{3-[5-(Isopropylamino-methyl)-[1,2,3]triazol-1-yl]-phenyl}-7-(isopropyl-methyl-amino)-8-trifluoromethyl-1,3-dihydro-benzo[b][1,4]diazepin-2-one], the melting point was 191 °C.

`CN(C)Cc1cc(-c2cccc(C3=Nc4cc(N(C)C)c(C(F)(F)F)cc4NC(=O)C3)c2)on1` [Example 55, 7-Dimethylamino-4-[3-(3-dimethylaminomethyl-isoxazol-5-yl)-phenyl]-8-trifluoromethyl-1,3-dihydro-benzo[b][1,4]diazepin-2-one] had a melting point of 160 °C.

For `CN(C)c1cc2c(cc1Cl)NC(=O)CC(c1cccc(-n3cncn3)c1)=N2` [Example 73, 8-Chloro-7-dimethylamino-4-(3-[1,2,4]triazol-1-yl-phenyl)-1,3-dihydro-benzo[b][1,4]diazepin-2-one], the melting point lay in the range of 239 to 241 °C.

Compound `CC(C)CN(C)c1cc2c(cc1Cl)NC(=O)CC(c1cccc(-n3ncnc3CN3CCCC3)c1)=N2` [Example 165, 8-Chloro-7-(isobutyl-methyl-amino)-4-[3-(5-pyrrolidin-1-ylmethyl-[1,2,4]triazol-1-yl)-phenyl]-1,3-dihydro-benzo[b][1,4]diazepin-2-one] came in with a melting point of 164 °C.

In turn, `CCCN(C)c1cc2c(cc1Cl)NC(=O)CC(c1cccc(-n3ncnc3CNC3CC3)c1)=N2` [Example 167, 8-Chloro-4-[3-(5-cyclopropylaminomethyl-[1,2,4]triazol-1-yl)-phenyl]-7-(methyl-propyl-amino)-1,3-dihydro-benzo[b][1,4]diazepin-2-one] displayed a melting point of 123 °C.

Compound `Cc1cc2c(cc1N(C)CC(C)C)N=C(c1cccc(-n3nncc3CNCC3CC3)c1)CC(=O)N2` [Example 143, 4-(3-{5-[(Cyclopropylmethyl-amino)-methyl]-[1,2,3]triazol-1-yl}-phenyl)-7-(isobutyl-methyl-amino)-8-methyl-1,3-dihydro-benzo[b][1,4]diazepin-2-one] yielded a melting point of 184 °C.

`CN(C)c1cc2c(cc1C(F)(F)F)NC(=O)CC(c1cccc(-c3ccnn3CCO)c1)=N2` [Example 81, 7-Dimethylamino-4-{3-[2-(2-hydroxy-ethyl)-2H-pyrazol-3-yl]-phenyl}-8-trifluoromethyl-1,3-dihydro-benzo[b][1,4]diazepin-2-one] had a melting point of 138 °C.

Compound `CN(CC1CC1)c1cc2c(cc1C(F)(F)F)NC(=O)CC(c1cccc(-n3nncc3CO)c1)=N2` [Example 77, 7-(Cyclopropylmethyl-methyl-amino)-4-[3-(5-hydroxymethyl-[1,2,3]triazol-1-yl)-phenyl]-8-trifluoromethyl-1,3-dihydro-benzo[b][1,4]diazepin-2-one] had a melting point of 212 °C.

On to `CN(C)c1cc2c(cc1C(F)(F)F)NC(=O)CC(c1cccc(-n3nccc3CO)c1)=N2` [Example 86, 7-Dimethylamino-4-[3-(5-hydroxymethyl-pyrazol-1-yl)-phenyl]-8-trifluoromethyl-1,3-dihydro-benzo[b][1,4]diazepin-2-one], for which the melting point lay within 228 to 229 °C.

The compound `CC(C)N(C)c1cc2c(cc1Cl)NC(=O)CC(c1cccc(-n3nncc3CN3CCC3)c1)=N2` [Example 129, 4-[3-(5-Azetidin-1-ylmethyl-[1,2,3]triazol-1-yl)-phenyl]-8-chloro-7-(isopropyl-methyl-amino)-1,3dihydro-benzo[b][1,4]diazepin-2-one] had a melting point of 177 °C.

The compound `CC(C)CNc1cc2c(cc1C(F)(F)F)NC(=O)CC(c1cccc(-n3ccnc3)c1)=N2` [Example 177, 4-(3-Imidazol-1-yl-phenyl)-7-isobutylamino-8-trifluoromethyl-1,3-dihydro-benzo[b][1,4]diazepin-2-one] showed a melting point of 221 °C.

On to `Cc1cc(-c2cccc(C3=Nc4cc(N(C)CC(C)C)c(Cl)cc4NC(=O)C3)c2)on1` [Example 102, 8-Chloro-7-(isobutyl-methyl-amino)-4-[3-(3-methyl-isoxazol-5-yl)-phenyl]-1,3-dihydro-benzo[b][1,4]diazepin-2-one], for which the melting point worked out at 194 °C.

Consider `CC(C)Nc1cc2c(cc1Cl)NC(=O)CC(c1cccc(-n3nncc3CO)c1)=N2` [Example 161, 8-Chloro-4-[3-(5-hydroxymethyl-[1,2,3]triazol-1-yl)-phenyl]-7-isopropylamino-1,3-dihydro-benzo[b][1,4]diazepin-2-one], for which the melting point is 250 °C.

`CN(C)c1cc2c(cc1C(F)(F)F)NC(=O)CC(c1cccc(-n3ccnn3)c1)=N2` [Example 87, 7-Dimethylamino-4-(3-[1,2,3]triazol-1-yl-phenyl)-8-trifluoromethyl-1,3-dihydro-benzo[b][1,4]diazepin-2-one] registered a melting point of 210 to 212 °C.

Take `CC(C)CN(C)c1cc2c(cc1Cl)NC(=O)CC(c1cccc(-n3nncc3CN3CCCCC3)c1)=N2` [Example 144, 8-Chloro-7-(isobutyl-methyl-amino)-4-[3-(5-piperidin-1-ylmethyl-[1,2,3]triazol-1-yl)-phenyl]-1,3-dihydro-benzo[b][1,4]diazepin-2-one]: the melting point came out at 169 °C.

`CC(C)N(C)c1cc2c(cc1C#N)NC(=O)CC(c1cccc(-n3nncc3CO)c1)=N2` [Example 109, 2-[3-(5-Hydroxymethyl-[1,2,3]triazol-1-yl)-phenyl]-8-(isopropyl-methyl-amino)-4-oxo-4,5-dihydro-3H-benzo[b][1,4]diazepine-7-carbonitrile] gave a melting point of 206 °C.

`COCc1cc(-c2cccc(C3=Nc4cc(N(C)C)c(Cl)cc4NC(=O)C3)c2)on1` [Example 21, 8-Chloro-7-dimethylamino-4-[3-(3-methoxymethyl-isoxazol-5-yl)-phenyl]-1,3-dihydro-benzo[b][1,4]diazepin-2-one] gave a melting point of 191 °C.

A word on the melting point: it is the temperature, or range, at which the solid turns liquid.
